According to patent US4272437A, “Antibacterial agents, and 4-thio azetidinone intermediates” (priority 1979, dated 1981):
In brackets after ≈: the same amount, converted by molar mass. Where two headings read alike, the source gives them in different places.

Legend:
[1] = system: Str. pyogenes A-9604; assay: MIC, tube dilution, Streptococcus pyogenes A9604; assay type: cell-based; conditions: Streptococcus pyogenes, A9604, Str. pyogenes A9604; overnight 37° C., Nutrient Broth; read-out: Minimum Inhibitory Concentration (M.I.C.)
Description: (§1) Representative compounds of the present invention were subjected to in vitro antibiotic screening against a variety of microorganisms.

[2] = system: Proteus vulgaris A21559; assay: MIC, tube dilution, Proteus vulgaris A21559; assay type: cell-based; conditions: Proteus vulgaris, A21559, Proteus vulgaris A21559; overnight 37° C.; read-out: Minimum Inhibitory Concentration (M.I.C.)
Description: as §1

[3] = system: Str. pneumoniae A-9585; assay: MIC, tube dilution, Streptococcus pneumoniae A9585; assay type: cell-based; conditions: Streptococcus pneumoniae, A9585, Str. pneumoniae A9585; overnight 37° C., Nutrient Broth; read-out: Minimum Inhibitory Concentration (M.I.C.)
Description: as §1

[4] = system: Proteus rettgeri A21203; assay: MIC, tube dilution, Proteus rettgeri A21203; assay type: cell-based; conditions: Providencia rettgeri, A21203, Proteus rettgeri A21203; overnight 37° C.; read-out: Minimum Inhibitory Concentration (M.I.C.)
Description: as §1

[5] = system: E. coli A-15119; assay: MIC, tube dilution, Escherichia coli A15119; assay type: cell-based; conditions: Escherichia coli, A15119, E. coli A15119; overnight 37° C.; read-out: Minimum Inhibitory Concentration (M.I.C.)
Description: as §1

[6] = system: Klebsiella species A20468; assay: MIC, tube dilution, Klebsiella species A20468; assay type: cell-based; conditions: Klebsiella species (K. pneumoniae) A20468; overnight 37° C.; read-out: Minimum Inhibitory Concentration (M.I.C.)
Description: as §1

[7] = system: Pr. mirabilis A-9900; assay: MIC, tube dilution, Proteus mirabilis A9900; assay type: cell-based; conditions: Proteus mirabilis, A9900, Proteus mirabilis A9900; overnight 37° C.; read-out: Minimum Inhibitory Concentration (M.I.C.)
Description: as §1

[8] = system: Staph. aureus A-9537 and 50% serum; assay: MIC, tube dilution, Staph. aureus A9537 + 50% serum; assay type: cell-based, Staphylococcus aureus; conditions: Staphylococcus aureus, overnight 37° C., read-out: Minimum Inhibitory Concentration (M.I.C.)
Description: as §1

[9] = system: E. coli A-20341-1; assay: MIC, tube dilution, Escherichia coli A20341-1; assay type: cell-based
Description: as §1

[10] = system: K. pneumoniae A-15130; assay: MIC, tube dilution, Klebsiella pneumoniae A15130; assay type: cell-based; conditions: Klebsiella pneumoniae, A15130, K. pneumoniae A15130; overnight 37° C.; read-out: Minimum Inhibitory Concentration (M.I.C.)
Description: as §1

[11] = system: Ps. aeruginosa A-9843A; assay: MIC, tube dilution, Pseudomonas aeruginosa A9843A; assay type: cell-based; conditions: Pseudomonas aeruginosa, A9843A, read-out: Minimum Inhibitory Concentration (M.I.C.), Pseudomonas aeruginosa A9843A; overnight 37° C.
Description: as §1

[12] = Mouse blood levels after intramuscular administration; assay type: in vivo; conditions: average of 6 mice, read-out: Mouse blood level; for concentration at 10 min: 10 minutes after IM 40 mg/kg; for concentration at 20 min: 20 minutes after IM 40 mg/kg; for concentration at 0.5 h: 30 minutes after IM 40 mg/kg; for concentration at 0.75 h: 45 minutes after IM 40 mg/kg; for concentration at 1 h: 60 minutes after IM 40 mg/kg; for concentration at 1.5 h: 90 minutes after IM 40 mg/kg; for concentration at 2 h: 120 minutes after IM 40 mg/kg
Method: Mouse blood levels after intramuscular administration of representative compounds of the present invention were determined and are reported in the table below.

[13] = system: Ser. marcescens A-20019; assay: MIC, tube dilution, Serratia marcescens A20019; assay type: cell-based; conditions: Serratia marcescens, A20019, Serratia marcescens A20019; overnight 37° C.; read-out: Minimum Inhibitory Concentration (M.I.C.)
Description: as §1

[14] = system: Staph. aureus A-9537; assay: MIC, tube dilution, Staphylococcus aureus A9537; assay type: cell-based; conditions: Staphylococcus aureus, A9537, Staph. aureus A9537; overnight 37° C., Nutrient Broth; read-out: Minimum Inhibitory Concentration (M.I.C.)
Description: as §1

[15] = system: Staph. aureus (Pen-Res) A-9606; assay: MIC, tube dilution, Staphylococcus aureus A9606 (Pen-Res); assay type: cell-based; conditions: Staphylococcus aureus, Staph. aureus A9606 (Pen-Res); overnight 37° C.; read-out: Minimum Inhibitory Concentration (M.I.C.)
Description: as §1

[16] = system: Ent. cloacae A-9656; assay: MIC, tube dilution, Enterobacter cloacae A9656; assay type: cell-based; conditions: Enterobacter cloacae, A9656, Enterobacter cloacae A9656; overnight 37° C.; read-out: Minimum Inhibitory Concentration (M.I.C.)
Description: as §1

[17] = system: Pr. morganii A-15153; assay: MIC, tube dilution, Proteus morganii A15153; assay type: cell-based; conditions: Morganella morganii, A15153, Proteus morganii A15153; overnight 37° C.; read-out: Minimum Inhibitory Concentration (M.I.C.)
Description: as §1

[18] = system: Ps. aeruginosa A-21213; assay: MIC, tube dilution, Pseudomonas aeruginosa A21213; assay type: cell-based; conditions: overnight 37° C.; for MIC: read-out: Minimum Inhibitory Concentration (M.I.C.)
Description: as §1

[19] = system: Str. faecalis A-20688; assay: MIC, tube dilution, Streptococcus faecalis A20688; assay type: cell-based; conditions: overnight 37° C.; for MIC: Enterococcus faecalis, A20688, Str. faecalis A20688, read-out: Minimum Inhibitory Concentration (M.I.C.)
Description: as §1

[20] = system: Ent. cloacae A-9659; assay: MIC, tube dilution, Enterobacter cloacae A9659; assay type: cell-based; conditions: overnight 37° C.; for MIC: Enterobacter cloacae, A9659, Enterobacter cloacae A9659, read-out: Minimum Inhibitory Concentration (M.I.C.)
Description: as §1

[21] = system: S. aureus A9537; assay: In vivo protection of mice, lethal infection with S. aureus A9537; conditions: Staphylococcus aureus, A9537, im, IM, 2 treatments, read-out: PD50
Method: Representative compounds of the present invention were also tested in vivo in mice and their PD50 (dose of compound in mg/kg required to protect 50% of the treated mice against an otherwise lethal infection of a micro-organism) values determined with respect to the test organisms shown below.

[22] = system: Staph. aureus (Meth-Res) A-15097; assay: MIC, tube dilution, Staphylococcus aureus A15097 (Meth-Res); assay type: cell-based; conditions: Staph. aureus A15097 (Meth-Res), overnight 37° C.
Description: as §1

[23] = system: Pr. vulgaris A-9716; assay: MIC, tube dilution, Proteus vulgaris / Proteus mirabilis A9716; assay type: cell-based, Proteus vulgaris (name changed to Proteus mirabilis); conditions: Proteus vulgaris, A9716, Proteus vulgaris / Proteus mirabilis A9716; overnight 37° C.; read-out: Minimum Inhibitory Concentration (M.I.C.)
Description: as §1

[24] = Escherichia coli, A203411, E. coli A20341-1; overnight 37° C.; read-out: Minimum Inhibitory Concentration (M.I.C.)
[25] = Pseudomonas aeruginosa, A21213, Pseudomonas aeruginosa A21213

Structure (SMILES) | MIC [1] [µg/mL] | MIC [3] [µg/mL] | MIC [4] [µg/mL] | MIC [5] [µg/mL] | MIC [6] [µg/mL] | MIC [7] [µg/mL] | MIC [8] [µg/mL] | MIC [10] [µg/mL] | MIC [11] [µg/mL] | concentration at 10 min [12] [ng/mL] | concentration at 20 min [12] [ng/mL] | concentration at 0.5 h [12] [ng/mL] | concentration at 0.75 h [12] [ng/mL] | concentration at 1 h [12] [ng/mL] | concentration at 1.5 h [12] [ng/mL] | concentration at 2 h [12] [ng/mL] | MIC [13] [µg/mL] | MIC [14] [µg/mL] | MIC [15] [µg/mL] | MIC [16] [µg/mL] | also measured
C[C@@H](O)[C@H]1C(=O)N2C(C(=O)O)=C([C@H]3C[C@H](N)C3)S[C@H]12 (relative stereo) [Example 65, (1"R,5R,6S and 1'S,5S,6R)-2-(trans-3'-Amino-1'-cyclobutyl)-6-(1"-hydroxy-1"-ethyl)penem-3-carboxylic Acid (isomer B)] | 0.004 (≈ 0.0141 µM) | 0.004 (≈ 0.0141 µM) | < 0.25 | 0.13 (≈ 0.457 µM) | 0.5 (≈ 1.76 µM) | < 0.25 | 0.06 | < 0.25 | 16 (≈ 56.3 µM) | 44700 | 34400 | 23700 | 17600 | 9800 | 3600 | 1000 | 0.5 (≈ 1.76 µM) | 0.008 (≈ 0.0281 µM) | 0.06 (≈ 0.211 µM) | 0.5 (≈ 1.76 µM) | MIC [2]: < 0.25 µg/mL; MIC [9, 24]: < 0.25 µg/mL; MIC [17]: 1 µg/mL (≈ 3.52 µM); Minimum Inhibitory Concentration (M.I.C.) ([18]; Pseudomonas aeruginosa A21213): 63 µg/mL; MIC [18, 25]: 125 µg/mL (≈ 440 µM); MIC [19]: 0.5 µg/mL (≈ 1.76 µM); Minimum Inhibitory Concentration (M.I.C.) ([20]; Enterobacter cloacae A9659): 2 µg/mL; MIC [20]: 4 µg/mL (≈ 14.1 µM); ED50 ([21]; 7.8 × 10^5 organisms): 0.12 mg/kg
NCCCC1=C(C(=O)O)N2C(=O)CC2S1 (stereo not shown) [Example 22, Sodium 2-Aminopropylpenem-3-carboxylate] | 2 | 0.25 | 16 | 16 | > 125 | 16 | 63 | 32 | 125 | 36500 | 39900 | 31500 | 16500 | 11500 | 5700 | 3100 | 32 | 2 | 63 | 32 | Minimum Inhibitory Concentration (M.I.C.) [22]: 125 µg/mL; MIC ([9]; Escherichia coli, A203411; E. coli A20341-1; overnight 37° C.; read-out: Minimum Inhibitory Concentration (M.I.C.)): 125 µg/mL; MIC [23]: 16 µg/mL; MIC [17]: 32 µg/mL; MIC ([18]; Pseudomonas aeruginosa A21213): 125 µg/mL; Minimum Inhibitory Concentration (M.I.C.) ([19]; Str. faecalis A20688): 125 µg/mL; MIC [20]: 16 µg/mL; ED50 ([21]; 1.1 × 10^6 organisms): 0.63 mg/kg
NCCOCC1=C(C(=O)O)N2C(=O)CC2S1 (stereo not shown) [Example 86, 2-(2-Aminoethoxymethyl)penem-3-carboxylic Acid] | 0.13 (≈ 0.532 µM) | 0.13 (≈ 0.532 µM) | 2 (≈ 8.19 µM) | 2 (≈ 8.19 µM) | > 125 | 2 (≈ 8.19 µM) | 1 | 4 (≈ 16.4 µM) | 63 (≈ 258 µM) | 36000 | 26300 | 16500 | 7500 | 4000 | < 3100 | < 3100 | 2 (≈ 8.19 µM) | 0.13 (≈ 0.532 µM) | 32 (≈ 131 µM) | 4 (≈ 16.4 µM) | MIC [2]: 8 µg/mL (≈ 32.8 µM); MIC ([22]; Staphylococcus aureus, read-out: Minimum Inhibitory Concentration (M.I.C.)): 125 µg/mL (≈ 512 µM); MIC [9, 24]: 8 µg/mL (≈ 32.8 µM); MIC [17]: 8 µg/mL (≈ 32.8 µM); MIC [18, 25]: 125 µg/mL (≈ 512 µM); MIC [19]: 32 µg/mL (≈ 131 µM); MIC [20]: 8 µg/mL (≈ 32.8 µM); ED50 ([21]; 1 × 10^6 organisms): 1.9 mg/kg
